From ChEMBL document CHEMBL5729675, “Sulfonamide compound or salt thereof” (2023)

Target: Ribonucleotide reductase (Homo sapiens, UniProt P23921+Q7LG56)
Experiment: Human RNR Inhibition Effect: The inhibitory activity against the ribonucleotide reduction reaction (hereinafter referred to as RNR reaction) of the test compound was determined by measuring the formation of deoxycytidine diphosphate (hereinafter referred to as dCDP) from cytidine diphosphate (hereinafter referred to as CDP) by the following method.Human M1 subunit and human M2 subunit (mutant …

Chain of Ribonucleotide reductase (P23921 whole entry, looked up): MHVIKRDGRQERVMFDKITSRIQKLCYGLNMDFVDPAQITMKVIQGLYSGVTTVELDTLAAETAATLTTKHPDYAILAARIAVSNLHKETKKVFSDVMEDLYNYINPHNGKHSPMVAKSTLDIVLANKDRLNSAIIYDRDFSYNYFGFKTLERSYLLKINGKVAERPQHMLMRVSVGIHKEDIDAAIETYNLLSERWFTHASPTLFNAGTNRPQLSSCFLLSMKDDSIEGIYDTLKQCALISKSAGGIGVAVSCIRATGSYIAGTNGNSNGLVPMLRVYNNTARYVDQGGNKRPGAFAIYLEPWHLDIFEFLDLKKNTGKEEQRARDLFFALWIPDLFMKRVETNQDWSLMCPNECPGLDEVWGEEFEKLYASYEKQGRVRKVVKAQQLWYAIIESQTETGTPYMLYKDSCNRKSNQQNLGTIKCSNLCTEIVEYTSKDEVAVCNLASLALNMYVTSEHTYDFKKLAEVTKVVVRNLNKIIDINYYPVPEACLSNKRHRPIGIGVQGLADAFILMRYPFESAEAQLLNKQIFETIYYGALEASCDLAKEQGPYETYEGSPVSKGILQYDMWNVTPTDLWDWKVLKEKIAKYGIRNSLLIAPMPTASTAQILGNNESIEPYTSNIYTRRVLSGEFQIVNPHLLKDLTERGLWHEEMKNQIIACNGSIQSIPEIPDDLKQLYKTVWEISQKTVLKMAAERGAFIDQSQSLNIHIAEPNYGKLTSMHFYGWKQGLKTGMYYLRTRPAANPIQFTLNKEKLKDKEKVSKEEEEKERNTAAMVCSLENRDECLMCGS
Chain of Ribonucleotide reductase (Q7LG56 whole entry, looked up): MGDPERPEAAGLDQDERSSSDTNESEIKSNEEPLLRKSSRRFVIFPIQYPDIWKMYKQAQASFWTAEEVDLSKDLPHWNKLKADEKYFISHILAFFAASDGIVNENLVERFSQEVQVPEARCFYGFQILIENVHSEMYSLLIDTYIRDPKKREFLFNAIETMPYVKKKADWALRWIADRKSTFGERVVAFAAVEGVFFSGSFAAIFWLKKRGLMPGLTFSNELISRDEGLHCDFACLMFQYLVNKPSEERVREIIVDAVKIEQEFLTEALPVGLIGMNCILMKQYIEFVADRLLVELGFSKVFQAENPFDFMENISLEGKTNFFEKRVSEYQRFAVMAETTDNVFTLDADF

Row | SMILES | IC50 [nM]
1 | Cc1ccc(F)c([C@@H](C)[C@H](NS(=O)(=O)c2ccc([N+](=O)[O-])cc2)c2n[nH]c(=O)o2)c1C | 270
2 | Cc1ccc(F)c([C@@H](C)[C@H](NS(=O)(=O)c2ccc(Cl)c(-c3cnn(C)c3)c2)c2n[nH]c(=O)o2)c1C | 220
3 | COc1cc(Cl)ccc1S(=O)(=O)N[C@H](c1n[nH]c(=O)o1)[C@H](C)c1c(F)ccc(-c2ccc(Cl)nc2)c1C | 340
4 | COc1cc(Cl)ccc1S(=O)(=O)N[C@H](c1n[nH]c(=O)o1)[C@H](C)c1c(F)ccc(-c2cnn(C(F)F)c2)c1C | 160
5 | COC(=O)c1cc(S(=O)(=O)N[C@H](c2n[nH]c(=S)o2)[C@H](C)c2cccc3c2CCC3)ccc1Cl | 830
6 | COc1cc(Cl)ccc1S(=O)(=O)N[C@H](c1n[nH]c(=O)o1)[C@H](C)c1c(F)ccc(-c2ccc(Cl)cc2)c1C | 490
7 | COc1cc(Cl)ccc1S(=O)(=O)N[C@H](c1n[nH]c(=O)o1)[C@H](C)c1c(F)ccc(-c2cnn(C3CCC3)c2)c1C | 220
8 | COc1cc(Cl)ccc1S(=O)(=O)N[C@H](c1n[nH]c(=O)o1)[C@H](C)c1c(F)ccc(-c2cc(F)cc(F)c2)c1C | 940
9 | Cc1ccc(F)c([C@@H](C)[C@H](NS(=O)(=O)c2cccc3c2OCCN3)c2n[nH]c(=O)o2)c1C | 420
10 | COc1cc(Cl)ccc1S(=O)(=O)N[C@H](c1n[nH]c(=O)o1)[C@H](C)c1c(F)ccc(-c2cncc(C(=O)N3CCOCC3)c2)c1C | 420
11 | COc1ccc(-c2cc(S(=O)(=O)N[C@H](c3n[nH]c(=O)o3)[C@H](C)c3c(F)ccc(C)c3C)ccc2Cl)cc1 | 720
12 | COc1cc(N)ccc1S(=O)(=O)N[C@H](c1n[nH]c(=O)o1)[C@H](C)c1c(F)ccc2ccccc12 | 260
13 | Cc1c(Br)ccc(F)c1[C@@H](C)[C@H](NS(=O)(=O)c1ccc(Cl)c2c1OCCC2(C)N)c1n[nH]c(=O)o1 (stereo partly drawn) | 60
14 | COc1cc(C(N)=O)c(S(=O)(=O)N[C@H](c2n[nH]c(=O)o2)[C@H](C)c2c(F)ccc(C)c2C)cc1OC | 360
15 | COc1cc(Cl)ccc1S(=O)(=O)N[C@H](c1n[nH]c(=O)o1)[C@H](C)c1c(F)ccc(-c2cn(C)nc2C)c1C | 280
16 | Cc1ccc(F)c([C@@H](C)[C@H](NS(=O)(=O)c2ccc(Cl)cc2C(=O)NOCc2ccccc2)c2n[nH]c(=O)o2)c1C | 910
17 | Cc1c(-c2cnn(C)c2)ccc(F)c1[C@@H](C)[C@H](NS(=O)(=O)c1ccc(Cl)cc1C(N)=O)c1n[nH]c(=O)o1 | 170
18 | Cc1ccc(F)c([C@@H](C)[C@H](NS(=O)(=O)c2c(Cl)cc(Cl)cc2C(N)=O)c2n[nH]c(=O)o2)c1C | 420

Row | SMILES | IC50 [nM]
19 | COc1cc(Cl)ccc1S(=O)(=O)N[C@H](c1n[nH]c(=O)o1)[C@H](C)c1c(F)ccc(-c2ccc(N3CCCCC3)nc2)c1C | 600
20 | COc1c(S(=O)(=O)N[C@H](c2n[nH]c(=O)o2)[C@H](C)c2c(F)ccc(C)c2C)ccc(Cl)c1C(C)=O | 110
21 | Cc1ccc(F)c([C@@H](C)[C@H](NS(=O)(=O)c2cc([N+](=O)[O-])c(Cl)cc2C(N)=O)c2n[nH]c(=O)o2)c1C | 130
22 | Cc1ccc(F)c([C@@H](C)[C@H](NS(=O)(=O)c2ccc(Cl)c(C(=O)N(C)C)n2)c2n[nH]c(=O)o2)c1C | 80
23 | COc1cc(N)ccc1S(=O)(=O)N[C@H](c1n[nH]c(=O)o1)[C@H](C)c1cccc2cccc(C)c12 | 510
24 | COc1cc(Cl)ccc1S(=O)(=O)N[C@H](c1noc(=O)[nH]1)[C@H](C)c1c(F)ccc(C)c1C | 250
25 | COc1cc(Cl)ccc1S(=O)(=O)N[C@H](c1n[nH]c(=O)o1)[C@H](C)c1c(F)ccc(-c2ccc(N3CCOCC3)nc2)c1C | 190
26 | CCn1cc(-c2ccc(F)c([C@@H](C)[C@H](NS(=O)(=O)c3ccc(Cl)cc3OC)c3n[nH]c(=O)o3)c2C)cn1 | 170
27 | Cc1ccc(F)c([C@@H](C)[C@@H](c2n[nH]c(=O)o2)N(C)S(=O)(=O)c2ccc(Cl)cc2C(N)=O)c1C | 80
28 | COc1cc(Cl)ccc1S(=O)(=O)N[C@H](c1n[nH]c(=O)o1)[C@H](C)c1c(F)ccc(-c2cccnc2)c1C | 340
29 | CC(=O)Nc1cc(Cl)ccc1S(=O)(=O)N[C@H](c1n[nH]c(=O)o1)[C@H](C)c1c(F)ccc(C)c1C | 440
30 | Cc1ccc(F)c([C@@H](C)[C@H](NS(=O)(=O)c2ccccc2C(=O)NO)c2n[nH]c(=O)o2)c1C | 310
31 | COc1ccccc1-c1ccc(C(N)=O)c(S(=O)(=O)N[C@H](c2n[nH]c(=O)o2)[C@H](C)c2c(F)ccc(C)c2C)c1 | 250
32 | Cc1ccc(F)c([C@@H](C)[C@H](NS(=O)(=O)c2ccc(Cl)c(C(=O)N3CCC(N)C3)n2)c2n[nH]c(=O)o2)c1C (stereo partly drawn) | 150
33 | CC(=O)N1CCOc2c(S(=O)(=O)N[C@H](c3n[nH]c(=O)o3)[C@H](C)c3cccc(C)c3C)ccc(Cl)c21 | 560
34 | COc1cc(C(N)=O)ccc1S(=O)(=O)N[C@H](c1n[nH]c(=O)o1)[C@H](C)c1c(F)ccc(C)c1C | 420
35 | Cc1ccc(F)c([C@@H](C)[C@H](NS(=O)(=O)c2cc3c(cc2C(N)=O)OCCO3)c2n[nH]c(=O)o2)c1C | 90
36 | Cc1c(Br)ccc(F)c1[C@@H](C)[C@H](NS(=O)(=O)c1ncc(Cl)cc1C(N)=O)c1n[nH]c(=O)o1 | 60

The remaining compounds from weak to strong by IC50, led by results:

Row | IC50 [nM] | SMILES
37 | 850 | C[C@H](c1cccc2c1CCCC2)[C@H](NS(=O)(=O)c1ccc(N)cc1)c1n[nH]c(=O)o1
38 | 790 | Cc1cccc([C@@H](C)[C@H](NS(=O)(=O)c2ccc(Cl)c3c2OCC=C3)c2n[nH]c(=O)o2)c1C
39 | 760 | Cc1ccc(F)c([C@@H](C)[C@H](NS(=O)(=O)c2cccc3c2CCNC3)c2n[nH]c(=O)o2)c1C
40 | 730 | COc1cc(N)ccc1S(=O)(=O)N[C@H](c1n[nH]c(=O)o1)[C@H](C)c1cccc2c1CCC2
41 | 660 | COC(=O)c1cc(Cl)c(N)cc1S(=O)(=O)N[C@H](c1n[nH]c(=O)o1)[C@H](C)c1c(F)ccc(C)c1C
42 | 640 | Cc1ccc(F)c([C@@H](C)[C@H](NS(=O)(=O)c2ccc(Br)c(C#N)c2)c2n[nH]c(=O)o2)c1C
43 | 540 | COc1cc(Cl)ccc1S(=O)(=O)N[C@H](c1n[nH]c(=O)o1)[C@H](C)c1c(F)ccc(-c2cncnc2)c1C
44 | 410 | Cc1ccc(F)c([C@@H](C)[C@H](NS(=O)(=O)c2ccc(C#N)cc2)c2n[nH]c(=O)o2)c1C
45 | 370 | CNC(=O)c1cc(Cl)ccc1S(=O)(=O)N[C@H](c1n[nH]c(=O)o1)[C@H](C)c1c(F)ccc(C)c1C
46 | 310 | COC(=O)c1c(Cl)ccc(S(=O)(=O)N[C@H](c2n[nH]c(=S)o2)[C@H](C)c2cccc3c2CCC3)c1Cl
47 | 300 | COc1ccc(-c2ccc(F)c([C@@H](C)[C@H](NS(=O)(=O)c3ccc(Cl)cc3OC)c3n[nH]c(=O)o3)c2C)cc1
48 | 290 | COc1cc(Cl)ccc1S(=O)(=O)N[C@H](c1n[nH]c(=O)o1)[C@H](C)c1c(F)ccc(-c2cc[nH]n2)c1C
49 | 280 | COc1ncc(-c2ccc(F)c([C@@H](C)[C@H](NS(=O)(=O)c3ccc(Cl)cc3OC)c3n[nH]c(=O)o3)c2C)cn1
50 | 260 | COc1ccc(-c2ccc(F)c([C@@H](C)[C@H](NS(=O)(=O)c3ccc(Cl)cc3OC)c3n[nH]c(=O)o3)c2C)cn1
51 | 230 | Cc1ccc(F)c([C@@H](C)[C@H](NS(=O)(=O)c2ccc(Cl)cc2N)c2n[nH]c(=O)o2)c1C
52 | 220 | COc1cc(Cl)ccc1S(=O)(=O)N[C@H](c1n[nH]c(=O)o1)[C@H](C)c1c(F)ccc(-c2cnc3c(c2)OCCN3C)c1C
53 | 220 | COc1cc(Cl)ccc1S(=O)(=O)N[C@H](c1n[nH]c(=O)o1)[C@H](C)c1c(F)ccc(-c2cnn(C3CC3)c2)c1C
54 | 180 | COc1cc(Cl)ccc1S(=O)(=O)N[C@H](c1n[nH]c(=O)o1)[C@H](C)c1c(F)ccc(-c2c[nH]nc2C)c1C
55 | 160 | C[C@H](c1c(F)ccc2ccccc12)[C@H](NS(=O)(=O)c1ccc(Cl)c2c1OCCC2F)c1n[nH]c(=O)o1 (stereo partly drawn)

Row | IC50 [nM] | SMILES
56 | 160 | COc1cc(Cl)ccc1S(=O)(=O)N[C@H](c1n[nH]c(=O)o1)[C@H](C)c1c(F)ccc(-c2cn[nH]c2)c1C
57 | 140 | Cc1ccc(F)c([C@@H](C)[C@H](NS(=O)(=O)c2c(F)cc(Cl)cc2C(N)=O)c2n[nH]c(=O)o2)c1C
58 | 130 | Cc1ccc(F)c([C@@H](C)[C@H](NS(=O)(=O)c2ccc(Cl)c3c2OCCC3N)c2n[nH]c(=O)o2)c1C (stereo partly drawn)
59 | 130 | Cc1ccc(F)c([C@@H](C)[C@H](NS(=O)(=O)c2ccc(Cl)c3c2OCC(=O)N3CCO)c2n[nH]c(=O)o2)c1C
60 | 130 | Cc1ccc(F)c([C@@H](C)[C@H](NS(=O)(=O)c2ccc(Br)cc2C(N)=O)c2n[nH]c(=S)o2)c1C
61 | 130 | Cc1c(Cl)ccc(F)c1[C@@H](C)[C@H](NS(=O)(=O)c1ccc(Cl)c2c1OCCN2C)c1n[nH]c(=O)o1
62 | 120 | Cc1ccc(F)c([C@@H](C)[C@H](NS(=O)(=O)c2cc(F)c(Cl)cc2C(N)=O)c2n[nH]c(=O)o2)c1C
63 | 100 | Cc1cc(S(=O)(=O)N[C@H](c2n[nH]c(=O)o2)[C@H](C)c2c(F)ccc(C)c2C)c(C(N)=O)cc1Cl
64 | 100 | Cc1ccc(F)c([C@@H](C)[C@H](NS(=O)(=O)c2ccc(Cl)c3c2OCCN3)c2n[nH]c(=O)o2)c1C
65 | 100 | COc1cc(S(=O)(=O)N[C@H](c2n[nH]c(=O)o2)[C@H](C)c2c(F)ccc(C)c2C)c(C(N)=O)cc1Cl
66 | 100 | Cc1ccc(F)c([C@@H](C)[C@H](NS(=O)(=O)c2ccc(Br)cc2OC(F)(F)F)c2n[nH]c(=O)o2)c1C
67 | 90 | COc1cc(Cl)ccc1S(=O)(=O)N[C@H](c1n[nH]c(=O)o1)[C@H](C)c1c(F)ccc(-c2cnn(C)c2)c1C
68 | 90 | COc1cc(C#N)ccc1S(=O)(=O)N[C@H](c1n[nH]c(=O)o1)[C@H](C)c1c(F)ccc(C)c1C
69 | 90 | Cc1ccc(F)c([C@@H](C)[C@H](NS(=O)(=O)c2cc(-c3nnco3)ccc2C(N)=O)c2n[nH]c(=O)o2)c1C
70 | 70 | Cc1ccc(F)c([C@@H](C)[C@H](NS(=O)(=O)c2ccc(Cl)cc2C(=O)NO)c2n[nH]c(=O)o2)c1C
71 | 70 | Cc1c(Cl)ccc(F)c1[C@@H](C)[C@H](NS(=O)(=O)c1ncc(Br)cc1C(N)=O)c1n[nH]c(=O)o1
72 | 70 | Cc1ccc(F)c([C@@H](C)[C@H](NS(=O)(=O)c2cc(OCC(F)F)ccc2C(N)=O)c2n[nH]c(=O)o2)c1C
73 | 50 | Cc1ccc(F)c([C@@H](C)[C@H](NS(=O)(=O)c2ccc(Cl)cc2C(N)=S)c2n[nH]c(=O)o2)c1C
